Biological target: T1, ELIC (Dickeya chrysanthemi, UniProt P0C7B7)
T1 sequence (P0C7B7 1-321): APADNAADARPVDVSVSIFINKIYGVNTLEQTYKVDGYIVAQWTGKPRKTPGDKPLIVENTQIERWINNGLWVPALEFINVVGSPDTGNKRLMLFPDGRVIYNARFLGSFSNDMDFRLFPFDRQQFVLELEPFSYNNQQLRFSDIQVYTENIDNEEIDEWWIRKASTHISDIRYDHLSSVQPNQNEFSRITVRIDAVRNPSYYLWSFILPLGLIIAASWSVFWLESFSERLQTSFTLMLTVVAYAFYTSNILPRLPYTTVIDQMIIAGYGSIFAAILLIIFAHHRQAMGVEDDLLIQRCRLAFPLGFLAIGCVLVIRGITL
Assay: two-electrode voltage clamp in Xenopus oocytes; outside-out patch clamp of HEK-293T cells
Assay type: cell-based

## NCCS [CA, cysteamine]
  EC50: 10 ± 0.1 mM

— PMC3833957, “Macroscopic Kinetics of Pentameric Ligand Gated Ion Channels: Comparisons between Two Prokaryotic Channels and One Eukaryotic Channel” (PLoS ONE, 2013)
